# Earlier results as cited in US20080014285A1, “METHOD OF TREATING NEURODEGENERATIVE BRAIN DISEASE WITH A COMPOSITE COMPRISING […] NANOPARTICLES AND A […] COMPOUND” (priority 2006, published 2008).
# Tests used:
# [1] = test system: glutamate-induced nitric oxide related neurotoxicity
# dopaminergic neurons = details: low dose; PD
# [2] = systemic administration; patients with intracranial hypertension
# [3] = peripheral administration, hypermagnesemia
# traumatic brain injury = details: administration no more than 12 hours post-trauma
compound,measurement,setting,value
CN(c1nc2ccccc2s1)C1CCN(C[C@H](O)COc2ccc(F)c(F)c2)CC1 [lubeluzole],glutamate-induced nitric oxide related neurotoxicity,[1],inhibits
VEGF,neuroprotection of dopaminergic neurons,dopaminergic neurons,neuroprotective
O=S(=O)([O-])[O-].[Mg+2] [magnesium sulfate],CSF ionized magnesium concentration,[2],failed to increase
same,increase of plasma magnesium levels,[2],> 50%
same,total and ionized CSF [Mg],[3],only marginal increases
[Mg+2] [magnesium],brain magnesium homeostasis,traumatic brain injury,restores brain magnesium homeostasis
same,motor and cognitive outcome,traumatic brain injury,profoundly improves both motor and cognitive outcome
